Laboratory results published in patent publication US7947854B2, “Bis-cationic compounds and use thereof” (The University of Sydney, priority 2003, dated 2011).
Like-named read-outs stand apart in the source and are kept apart here. Marks after values point to notes of the source that are not given here.

Columns and labels:
[1] = tested on: secreted phospholipase B (PLB activity); assay: Radiometric assay, secreted PLB activity; assay type: biochemical, Cryptococcus neoformans H99; details: for PLB, percentage inhibition of activity: Secretory Cryptococcal H99 Phospholipase; for % Inhibition PLB, Secretory Enzyme: pH 4
Procedure, shortened: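 Secreted enzyme was taken from cell-free supernatant of Cryptococcus isolate H99 cells incubated 24 h at 37° C. Reactions at 37° C, pH 4.0 imidazole acetate, used 800 μM DPPC with [14C]-dipalmitoyl PC and 1 μg protein for 22 min. PLB was measured as radiolabelled PC loss by TLC, with inhibition expressed versus inhibitor-free control; compounds were tested at 25 and 250 μM, then 2.5 and 0.25 μM.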

[2] = target: T1, Porcine pancreatic phospholipase A2 (Sus scrofa, UniProt P00592); assay: Pancreatic phospholipase assay; assay type: biochemical; details: read-out: ppPLA2, percentage inhibition of activity
T1 construct: purchased Sigma, St. Louis MO, USA
T1 sequence (P00592 23-146): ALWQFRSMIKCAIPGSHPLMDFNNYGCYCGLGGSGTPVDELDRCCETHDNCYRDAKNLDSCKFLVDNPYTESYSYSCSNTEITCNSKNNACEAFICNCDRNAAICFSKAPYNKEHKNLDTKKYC
Procedure: Pancreatic phospholipase assay. Porcine pancreatic phospholipase A2 suspension in 3.2M ammonium sulfate (2.9 mg protein/mL, Sigma St.Louis Mo., USA) was used. One part of well mixed enzyme suspension was added to 4 parts of buffer (10 mM Tris/HCl, pH 8.2; 10 mM CaCl2. Activity and inhibition by test compounds was then measured by the radiometric method described in Example 2 for fungal PLB activity. However, 25 μL enzyme solution was used, and the reaction time was 1 hour. These conditions result in ˜60% substrate conversion in the inhibitor-free control.

[3] = tested on: Candida albicans ATCC 10231; assay: Antifungal susceptibility testing, microdilution MIC; assay type: cell-based; details: Candida albicans, ATCC10231
Procedure, shortened: (§1)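 Standard microdilution method, run in duplicate, using serial dilutions of cationic compounds.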

[4] = tested on: Cryptococcus neoformans ATCC 90112; assay: as above; assay type: cell-based; details: Cryptococcus neoformans, ATCC90112
Procedure, shortened: as §1

erythrocyte = assay type: cell-based; details: 37° C., 1 h
Procedure: Human blood was collected in 10 mL Vacutainer tubes containing potassium-EDTA as anticoagulant. The blood from each vacutainer was transferred to a 50 mL centrifuge tube and the cells washed three times with calcium- and magnesium-free phosphate buffered saline (PBS) (Gibco) by centrifugation at 2000×g for 15 min. The third supernatant was clear and colourless. Cells were stored in PBS for up to two weeks. The cell suspension in PBS (0.5 mL) was mixed with a stock solution of test substance (0.5 mL) at the appropriate concentration (final erythrocyte concentration of approx. 0.5×10^9 per mL). The mixtures were incubated at 37° C. for 1 h with gentle shaking, then centrifuged at 2000×g for 10 min. The supernatant was diluted 10-fold with PBS and the optical density measured at 540 nm. The values for 0% and 100% lysis were determined by incubating cells with PBS or 0.1% Triton X-100 (in water), respectively. Assays were carried out in triplicate.

[5] = Table 6, no visible growth after 48 h at 35° C., read-out: MIC C. albicans ATCC 10231
[6] = Table 6, no visible growth after 72 h at 35° C., read-out: MIC C. neof. ATCC 90112
[7] = Table 7, read-out: MIC (μM) C. alb. (10231)
[8] = Table 7, read-out: MIC (μM) Crypto. (ATCC 90112)

## CCCC[N+](CCCC)(CCCC)CCCCCCCCCCCC[N+](CCCC)(CCCC)CCCC [Compound 3, 1,12-bis(tributylammonium)do-decane dibromide]
[1]; 0.25 μM
  PLB, percentage inhibition of activity: 20%
[1]; 2.5 μM
  PLB, percentage inhibition of activity: 65%
[1]; 25 μM
  PLB, percentage inhibition of activity: 80%
[1]; 250 μM
  PLB, percentage inhibition of activity: 85%
[2]
  inhibition at 0.25 µM: 0%
  inhibition at 2.5 µM: 0%
  inhibition at 25 µM: 36%
  inhibition at 250 µM: 86%
[3]; [5]
  MIC: 11 µM
[4]; [6]
  MIC: 2.5 µM

## CCCC[N+](CCCC)(CCCC)CCCCCCCCCCCC[N+](CCCC)(CCCC)CCCC [1,12-Bis-(tributylammonium)dodecane dichloride]
[1]; 0.25 μM
  PLB assay (% inhibition): 0%
[1]; 2.5 μM
  PLB assay (% inhibition): 6%
[1]; 6.7 μM
  PLB assay (% inhibition): 35%
[1]; 12.5 μM
  PLB assay (% inhibition): 56%
[1]; 25 μM
  PLB assay (% inhibition): 65%
[1]; 250 μM
  PLB assay (% inhibition): 85%
[3]; [7]
  MIC: 5.5 µM
[4]; [8]
  MIC: 2.5 µM
erythrocyte; 3.5 μM
  Haemolytic assay (%): 0%
erythrocyte; 35 μM
  Haemolytic assay (%): 0%
erythrocyte; 88 μM
  Haemolytic assay (%): 0%
erythrocyte; 175 μM
  Haemolytic assay (%): 5%
erythrocyte; 350 μM
  Haemolytic assay (%): 100%

## CCCC[P+](CCCC)(CCCC)CCCCCCCCCCCC[P+](CCCC)(CCCC)CCCC [Compound 1, 1,12-bis(tributylphosphonium)dodecane dibromide]
[1]; 0.25 μM
  PLB assay (% inhibition): 0%
  PLB, percentage inhibition of activity: 0%
  % Inhibition PLB, Secretory Enzyme: 0%
[1]; 2.5 μM
  PLB assay (% inhibition): 0%
  PLB, percentage inhibition of activity: 0%
  % Inhibition PLB, Secretory Enzyme: 0%
[1]; 25 μM
  PLB assay (% inhibition): 35%
  PLB, percentage inhibition of activity: 35%
  % Inhibition PLB, Secretory Enzyme: 35.2* %
[1]; 250 μM
  PLB assay (% inhibition): 55%
  PLB, percentage inhibition of activity: 55%
  % Inhibition PLB, Secretory Enzyme: 55.0* %
[2]
  inhibition at 0.25 µM: 0%
  inhibition at 2.5 µM: 5%
  inhibition at 25 µM: 62%
  inhibition at 250 µM: 97%
[3]; [5]
  MIC: 8.8 µM
[3]; [7]
  MIC: 8.8 µM
[4]; [6]
  MIC: 2.5 µM
[4]; [8]
  MIC: 2.5 µM
erythrocyte; 3.5 μM
  Haemolytic assay (%): 0%
erythrocyte; 35 μM
  Haemolytic assay (%): 0%
erythrocyte; 88 μM
  Haemolytic assay (%): 0%
erythrocyte; 175 μM
  Haemolytic assay (%): 0%
erythrocyte; 350 μM
  Haemolytic assay (%): 0%
erythrocyte; 700 μM
  Haemolytic assay (%): 75%
